Measurements published in patent US10421774B2 (priority 2016, dated 2019).

What was measured:
Assay in all cases: microbe, parasite or virus in culture
Format in all cases: cell-based, HIV-1
[1] = tested on: NLRepRlucP373S recombinant wild type (WT) virus; details: Human immunodeficiency virus 1, MT2, read-out: WT EC50
Method in brief: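 MT-2 cells infected with NLRepRlucP373S Renilla luciferase reporter virus (NL4-3, Gag P373S), inocula normalized by luciferase signal; compounds 3-fold serially diluted, 1% DMSO final. Virus yield read by Renilla luciferase after 4-5 days at 37 °C. EC50/EC90 from median effect equation; background = signal at NFV 3 μM.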

[2] = tested on: A364V site directed mutant virus; details: Human immunodeficiency virus 1, MT2, read-out: A364V EC50
Method in brief: (§1)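 Multiple-cycle assay in MT-2 cells infected with Renilla luciferase NL4-3 (Gag P373S background) carrying site-directed Gag A364V or V370A/ΔT371 changes, inocula normalized by luciferase signal. 10,000 cells/well, 3-fold compound dilutions, 1% DMSO, 4–5 days at 37°C; yield read as Renilla luciferase.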

[3] = tested on: gag V370A/ΔT371 virus; details: Human immunodeficiency virus 1, MT2, read-out: V370A/ΔT371 EC50
Method in brief: as §1

[4] = tested on: T332S/V362I/Pr R41G virus; details: Human immunodeficiency virus 1, MT2, read-out: T332S/V362I/pr41G EC50
Method in brief: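 Renilla luciferase NL4-3 reporter virus (Gag P373S background) carrying Gag T332S/V362I plus protease R41G, inoculum normalized by luciferase signal, infected MT-2 cells (10,000/well). Compounds 3-fold diluted, 1% DMSO final. After 4–5 days at 37 °C, virus yield measured as Renilla luciferase activity in a multiple-cycle assay.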

Compound | EC50 [1] [nM] | EC50 [2] [nM] | EC50 [3] [nM] | EC50 [4] [nM]
C=C(C)[C@@H]1CC[C@]2(NC[C@H](O)C(=O)O)CC[C@]3(C)[C@H](CC[C@@H]4[C@@]5(C)CC=C(C6=CC[C@](COc7ncccc7C(N)=O)(C(=O)O)CC6)C(C)(C)[C@@H]5CC[C@]43C)[C@@H]12 [Example A18] | 8 | 192 | 27 | 27
C=C(C)[C@@H]1CC[C@]2(NCCN3CCS(=O)(=O)CC3)CC[C@]3(C)[C@H](CC[C@@H]4[C@@]5(C)CC=C(C6=CCC(COc7cccc(C#N)n7)(C(=O)O)CC6)C(C)(C)[C@@H]5CC[C@]43C)[C@@H]12 (stereo partly drawn) [Example 39, 1-(((6-cyanopyridin-2-yl)oxy)methyl)-4-((1R,3aS,5aR,5bR,7aR,11aS,11bR,13aR,13bR)-3a-((2-(1,1-dioxidothiomorpholino)ethyl)amino)-5a,5b,8,8,11a-pentamethyl-1-(prop-1-en-2-yl)-2,3,3a,4,5,5a,5b,6,7,7a,8,11,11a,11b,12,13,13a,13b-octadecahydro-1H-cyclopenta[a]chrysen-9-yl)cyclohex-3-ene-1-carboxylic acid] | 14 | < 50 | > 50 | > 50
C=C(C)[C@@H]1CC[C@]2(NCCN3CCS(=O)(=O)CC3)CC[C@]3(C)[C@H](CC[C@@H]4[C@@]5(C)CC=C(C6=CCC(COc7nnnn7C)(C(=O)O)CC6)C(C)(C)[C@@H]5CC[C@]43C)[C@@H]12 (some centres unmarked) [Example 13] | 2 | 24 | 7 | 7
C=C(C)[C@@H]1CC[C@]2(NC[C@@](C)(O)CO)CC[C@]3(C)[C@H](CC[C@@H]4[C@@]5(C)CC=C(C6=CC[C@](COc7ncccc7C#N)(C(=O)O)CC6)C(C)(C)[C@@H]5CC[C@]43C)[C@@H]12 [Example A13, (R)-1-(((3-cyanopyridin-2-yl)oxy)methyl)-4-((1R,3aS,5aR,5bR,7aR,11aS,11bR,13aR,13bR)-3a-(((R)-2,3-dihydroxy-2-methylpropyl)amino)-5a,5b,8,8,11a-pentamethyl-1-(prop-1-en-2-yl)-2,3,3a,4,5,5a,5b,6,7,7a,8,11,11a,11b,12,13,13a,13b-octadecahydro-1H-cyclopentalalchrysen-9-yl)cyclohex-3-enecarboxylic acid] | 2 | 831 | 27 | 27
C=C(C)[C@@H]1CC[C@]2(NC[C@H](O)C(=O)O)CC[C@]3(C)[C@H](CC[C@@H]4[C@@]5(C)CC=C(C6=CC[C@](COc7ncccc7C#N)(C(=O)O)CC6)C(C)(C)[C@@H]5CC[C@]43C)[C@@H]12 [Example A17, (R)-4-((1R,3aS,5aR,5bR,7aR,11aS,11bR,13aR,13bR)-3a-(((S)-2-carboxy-2-hydroxyethyl)amino)-5a,5b,8,8,11a-pentamethyl-1-(prop-1-en-2-yl)-2,3,3a,4,5,5a,5b,6,7,7a,8,11,11a,11b,12,13,13a,13b-octadecahydro-1H-cyclopenta[a]chrysen-9-yl)-1-(((3-cyanopyridin-2-yl)oxy)methyl)cyclohex-3-enecarboxylic acid] | 3 | 3000 | 15 | 15
C=C(C)[C@@H]1CC[C@]2(NCCN3CCS(=O)(=O)CC3)CC[C@]3(C)[C@H](CC[C@@H]4[C@@]5(C)CC=C(C6=CCC(CCOc7ncccn7)(C(=O)O)CC6)C(C)(C)[C@@H]5CC[C@]43C)[C@@H]12 (stereo partly drawn) [Example A25, 4-((1R,3aS,5aR,5bR,7aR,11aS,11bR,13aR,13bR)-3a-((2-(1,1-dioxidothiomorpholino)ethyl)amino)-5a,5b,8,8,11a-pentamethyl-1-(prop-1-en-2-yl)-2,3,3a,4,5,5a,5b,6,7,7a,8,11,11a,11b,12,13,13a,13b-octadecahydro-1H-cyclopenta[a]chrysen-9-yl)-1-(2-(pyrimidin-2-yloxy)ethyl)cyclohex-3-ene-1-carboxylic acid] | < 50 | < 50 | < 50 | < 50
C=C(C)[C@@H]1CC[C@]2(NCCN3CCS(=O)(=O)CC3)CC[C@]3(C)[C@H](CC[C@@H]4[C@@]5(C)CC=C(C6=CCC(CCOc7ncccc7Cl)(C(=O)O)CC6)C(C)(C)[C@@H]5CC[C@]43C)[C@@H]12 (stereo partly drawn) [Example A29, 1-(2-((3-chloropyridin-2-yl)oxy)ethyl)-4-((1R,3aS,5aR,5bR,7aR,11aS,11bR,13aR,13bR)-3a-((2-(1,1-dioxidothiomorpholino)ethyl)amino)-5a,5b,8,8,11a-pentamethyl-1-(prop-1-en-2-yl)-2,3,3a,4,5,5a,5b,6,7,7a,8,11,11a,11b,12,13,13a,13b-octadecahydro-1H-cyclopenta[a]chrysen-9-yl)cyclohex-3-ene-1-carboxylic acid] | 5 | 4 | 3 | 3
C=C(C)[C@@H]1CC[C@]2(NCCN3CCS(=O)(=O)CC3)CC[C@]3(C)[C@H](CC[C@@H]4[C@@]5(C)CC=C(C6=CCC(COc7ccccn7)(C(=O)O)CC6)C(C)(C)[C@@H]5CC[C@]43C)[C@@H]12 (some centres unmarked) [Example 1] | 3 | 11 | 17 | 14
C=C(C)[C@@H]1CC[C@]2(NCCN3CCS(=O)(=O)CC3)CC[C@]3(C)[C@H](CC[C@@H]4[C@@]5(C)CC=C(C6=CC[C@@](COc7cccc(OC)n7)(C(=O)O)CC6)C(C)(C)[C@@H]5CC[C@]43C)[C@@H]12 [Example 28, (S)-4-((1R,3aS,5aR,5bR,7aR,11aS,11bR,13aR,13bR)-3a-((2-(1,1-dioxidothiomorpholino)ethyl)amino)-5a,5b,8,8,11a-pentamethyl-1-(prop-1-en-2-yl)-2,3,3a,4,5,5a,5b,6,7,7a,8,11,11a,11 b,12,13,13a,13b-octadecahydro-1H-cyclopenta[a]chrysen-9-yl)-1-(((6-methoxypyridin-2-yl)oxy)methyl)cyclohex-3-ene-1-carboxylic acid] | 3 | 21 | 21 | 21
C=C(C)[C@@H]1CC[C@]2(NCCN3CCS(=O)(=O)CC3)CC[C@]3(C)[C@H](CC[C@@H]4[C@@]5(C)CC=C(C6=CCC(COc7ncccn7)(C(=O)O)CC6)C(C)(C)[C@@H]5CC[C@]43C)[C@@H]12 (some centres unmarked) [Example 34] | 2 | < 50 | 13 | 13
C=C(C)[C@@H]1CC[C@]2(NCCN3CCS(=O)(=O)CC3)CC[C@]3(C)[C@H](CC[C@@H]4[C@@]5(C)CC=C(C6=CCC(COc7nccs7)(C(=O)O)CC6)C(C)(C)[C@@H]5CC[C@]43C)[C@@H]12 (stereo partly drawn) [Example 15, 4-((1R,3aS,5aR,5bR,7aR,11aS,11bR,13aR,13bR)-3a-((2-(1,1-dioxidothiomorpholino)ethyl)amino)-5a,5b,8,8,11a-pentamethyl-1-(prop-1-en-2-yl)-2,3,3a,4,5,5a,5b,6,7,7a,8,11,11a,11b,12,13,13a,13b-octadecahydro-1H-cyclopenta[a]chrysen-9-yl)-1-((thiazol-2-yloxy)methyl)cyclohex-3-ene-1-carboxylic acid] | 4 | 2380 | 390 | 390
C=C(C)[C@@H]1CC[C@]2(NCCN3CCS(=O)(=O)CC3)CC[C@]3(C)[C@H](CC[C@@H]4[C@@]5(C)CC=C(C6=CC[C@](COc7ncccc7Cl)(C(=O)O)CC6)C(C)(C)[C@@H]5CC[C@]43C)[C@@H]12 [Example 22] | 5 | 8 | 15 | 15
C=C(C)[C@@H]1CC[C@]2(NCC[C@]3(O)CC[C@H](S(C)(=O)=O)CC3)CC[C@]3(C)[C@H](CC[C@@H]4[C@@]5(C)CC=C(C6=CC[C@@](COc7ncccc7C#N)(C(=O)O)CC6)C(C)(C)[C@@H]5CC[C@]43C)[C@@H]12 [Example A4, (S)-1-(((3-cyanopyridin-2-yl)oxy)methyl)-4-((1R,3aS,5aR,5bR,7aR,11aS,11bR,13aR,13bR)-3a-((2-((1r,4S)-1-hydroxy-4-(methylsulfonyl)cyclohexyl)ethyl)amino)-5a,5b,8,8,11a-pentamethyl-1-(prop-1-en-2-yl)-2,3,3a,4,5,5a,5b,6,7,7a,8,11,11a,11b,12,13,13a,13b-octadecahydro-1H-cyclopenta[a]chrysen-9-yl)cyclohex-3-enecarboxylic acid] | 4 | 26 | 6 | 6
C=C(C)[C@@H]1CC[C@]2(NC[C@H](O)COC)CC[C@]3(C)[C@H](CC[C@@H]4[C@@]5(C)CC=C(C6=CC[C@](COc7ncccc7C#N)(C(=O)O)CC6)C(C)(C)[C@@H]5CC[C@]43C)[C@@H]12 [Example A11, (R)-1-(((3-cyanopyridin-2-yl)oxy)methyl)-4-((1R,3aS,5aR,5bR,7aR,11aS,11bR,13aR,13bR)-3a-(((S)-2-hydroxy-3-methoxypropyl)amino)-5a,5b,8,8,11a-pentamethyl-1-(prop-1-en-2-yl)-2,3,3a,4,5,5a,5b,6,7,7a,8,11,11a,11b,12,13,13a,13b-octadecahydro-1H-cyclopentalalchrysen-9-yl)cyclohex-3-enecarboxylic acid] | 11 | 281 | 17 | 17
